# PMC6320941, “Synthesis and Evaluation of 3-Substituted-4-(quinoxalin-6-yl) Pyrazoles as TGF-β Type I Receptor Kinase Inhibitors” (Molecules, 2018)
# Columns and labels:
# ALK5 [1] = test system: ALK5; parameters: method as in PMID 16271073; conditions: cited from earlier work
# ALK5 [2] = molecular target: T1, ALK5 (Homo sapiens, UniProt P36897); experiment: Radiometric 33PanQinase ALK5 kinase assay (ProQinase), casein substrate; format: biochemical; conditions: for remaining activity at 10 µM: compound at 10 μM, in duplicate, read-out: Residual Activity (%) ALK5; for Selectivity Index: IC50 of p38α/IC50 of ALK5; for ALK5 inhibitory activity in words: at up to 5.0 μM for 18a–d, 'at up to 2.26 μM' for pyrimidin-4-yl compounds
# T1 sequence (P36897 205-495 limits assumed): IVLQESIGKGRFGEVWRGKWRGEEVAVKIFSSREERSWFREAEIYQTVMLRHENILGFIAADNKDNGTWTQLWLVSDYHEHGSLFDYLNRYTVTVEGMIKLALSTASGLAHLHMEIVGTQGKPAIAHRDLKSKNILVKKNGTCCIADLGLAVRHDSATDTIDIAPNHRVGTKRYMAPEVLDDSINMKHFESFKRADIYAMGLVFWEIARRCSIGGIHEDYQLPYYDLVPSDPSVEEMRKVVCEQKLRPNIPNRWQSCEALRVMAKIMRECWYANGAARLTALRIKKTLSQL
# Method: To investigate whether compounds 14a–d, 15a–d, 16a–d, 17a–d, 18a–d, and 19a–d would inhibit ALK5, a kinase assay for preliminary screening was performed using the purified human ALK5 kinase domain produced in Sf9 insect cells and compounds at 10 μM.
# (§1) All kinase experiments were completed by the ProQinase (Freiburg, Germany). All protein kinases were expressed in Sf9 insect cells or in E. coli as recombinant GST-fusion proteins or His-tagged proteins, either as full-length or enzymatically active fragments. All kinases were obtained from human cDNAs and purified by either GSH-affinity chromatography or immobilized metal. The purity of the protein kinases was examined by SDS-PAGE/Coomassie staining. The identity was checked by mass spectroscopy.
# (§2) A radiometric protein kinase assay (^33PanQinase® activity assay) was used for measuring the kinase activity of the two protein kinases. All kinase assays were performed in 96-well FlashPlates^TM from PerkinElmer (Boston, MA, USA) in 50 μL reaction volumes. The reaction cocktail was pipetted in four steps in the following order: 20 μL of assay buffer (standard buffer), 5 μL of ATP solution (in H2O), 5 μL of test compound (in 10% DMSO), 20 μL enzyme/substrate mix.
# (§3) The assay for all protein kinases contained 70 mM HEPES-NaOH pH 7.5, 3 mM MgCl2, 3 mM MnCl2, 3 μM Na-orthovanadate, 1.2 mM DTT, 50 μg/mL PEG20000, ATP, [γ-^33P]-ATP, protein kinase, and substrate.
# (§4) The reaction cocktail was incubated at 30 °C for 60 min. The reaction was halted with 50 μL of 2% (v/v) H3PO4, plates were aspirated and washed two times with 200 μL 0.9% (w/v) NaCl. Incorporation of ^33Pi was established with a microplate scintillation counter (PerkinElmer, Boston, MA, USA). All assays were performed with a BeckmanCoulter/SAGIAN™ Core System.
# p38α MAP kinase = p38α MAP kinase (Homo sapiens, UniProt Q16539); experiment: Radiometric 33PanQinase p38α MAP kinase assay (ProQinase), ATF2 substrate; format: biochemical; conditions: for remaining activity at 10 µM: compound at 10 μM, in duplicate, read-out: Residual Activity (%) p38α
# Text: We selected p38α MAP kinase to survey the selectivity profile of this series of compounds because its kinase domain is among the most homologous to that of ALK5 [27].
# as §1, §2, §3, §4
# Chain of p38α MAP kinase (Q16539 whole entry, the tested form may be a part): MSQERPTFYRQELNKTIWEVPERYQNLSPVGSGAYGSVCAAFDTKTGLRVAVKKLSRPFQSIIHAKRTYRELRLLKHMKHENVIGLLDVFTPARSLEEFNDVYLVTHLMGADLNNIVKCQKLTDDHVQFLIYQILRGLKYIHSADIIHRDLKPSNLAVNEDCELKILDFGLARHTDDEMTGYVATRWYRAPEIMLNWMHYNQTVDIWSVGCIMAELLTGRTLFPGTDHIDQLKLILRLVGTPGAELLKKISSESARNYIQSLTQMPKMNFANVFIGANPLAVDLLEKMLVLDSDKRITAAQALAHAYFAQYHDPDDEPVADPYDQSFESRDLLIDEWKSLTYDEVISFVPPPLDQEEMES
remaining activity at 10 µM (ALK5 [2]) [%],remaining activity at 10 µM (p38α MAP kinase) [%],melting point [°C],IC50 (ALK5 [2]) [µM],Selectivity Index (ALK5 [2]),IC50 (p38α MAP kinase) [µM],ALK5 inhibitory activity in words (ALK5 [2]),SMILES,IC50 (ALK5 [1]) [µM]
–,–,–,–,–,–,–,"Cc1cccc(-c2nn(C(=S)Nc3ccccc3)cc2-c2ccnc3ccccc23)n1 [Compound 6, A-83-01]",0.012
3,108,222.3 to 223,–,–,–,–,"Cc1csc(-c2nn(CC(=O)Nc3cccc(C#N)c3)cc2-c2ccc3nccnc3c2)n1 [Compound 16d, N-(3-Cyanophenyl)-2-(3-(4-methylthiazol-2-yl)-4-(quinoxalin-6-yl)-1H-pyrazol-1-yl)acetamide]",–
29,119,182 to 184,5.75,>2,> 10,–,"CN(C)c1cccc(-c2nn(CC(=S)Nc3ccccc3)cc2-c2ccc3nccnc3c2)n1 [Compound 18a, 2-(3-(6-(Dimethylamino)pyridin-2-yl)-4-(quinoxalin-6-yl)-1H-pyrazol-1-yl)-N-phenylethanethioamide]",–
70,125,88.3 to 91.2,> 10,–,> 10,–,"CN(C)c1cccc(-c2nn(CC(=S)Nc3ccccc3F)cc2-c2ccc3nccnc3c2)n1 [Compound 18b, 2-(3-(6-(Dimethylamino)pyridin-2-yl)-4-(quinoxalin-6-yl)-1H-pyrazol-1-yl)-N-(2-fluorophenyl)ethanethioamide]",–
29,165,68.5 to 70.2,5,>2,> 10,–,"CN(C)c1cccc(-c2nn(CC(=S)Nc3cccc(F)c3)cc2-c2ccc3nccnc3c2)n1 [Compound 18c, 2-(3-(6-(Dimethylamino)pyridin-2-yl)-4-(quinoxalin-6-yl)-1H-pyrazol-1-yl)-N-(3-fluorophenyl)ethanethioamide]",–
54,119,108.5 to 110,> 10,–,> 10,–,"CN(C)c1cccc(-c2nn(CC(=S)Nc3cccc(C#N)c3)cc2-c2ccc3nccnc3c2)n1 [Compound 18d, N-(3-Cyanophenyl)-2-(3-(6-(dimethylamino)pyridin-2-yl)-4-(quinoxalin-6-yl)-1H-pyrazol-1-yl)ethanethioamide]",–
–,–,170.3 to 172.5,5.03,>2,> 10,no significant ALK5 inhibition activity,"O=C(Cn1cc(-c2ccc3nccnc3c2)c(-c2ccncn2)n1)Nc1ccccc1 [Compound 25a, N-Phenyl-2-(3-(pyrimidin-4-yl)-4-(quinoxalin-6-yl)-1H-pyrazol-1-yl)acetamide]",–
–,–,192.3 to 194.5,3.66,>3,> 10,no significant ALK5 inhibition activity,"O=C(Cn1cc(-c2ccc3nccnc3c2)c(-c2ccncn2)n1)Nc1ccccc1F [Compound 25b, N-(2-Fluorophenyl)-2-(3-(pyrimidin-4-yl)-4-(quinoxalin-6-yl)-1H-pyrazol-1-yl)acetamide]",–
–,–,178.3 to 180.5,4.12,>2,> 10,no significant ALK5 inhibition activity,"N#Cc1cccc(NC(=O)Cn2cc(-c3ccc4nccnc4c3)c(-c3ccncn3)n2)c1 [Compound 25d, N-(3-Cyanophenyl)-2-(3-(pyrimidin-4-yl)-4-(quinoxalin-6-yl)-1H-pyrazol-1-yl)acetamide]",–
